# Test results taken from US20260022142A1, “MACROCYCLIC IMMUNOMODULATORS” (Bristol-Myers Squibb Company, priority 2022, published 2026).
# Bridge positions count the residues as written; N and C are the ends. Square brackets hold non-standard residues; d marks the D form. Peptide text beside a SMILES is read from it. * marks the point of attachment. ξ: configuration not given here. Phe(4-CH2CH2COOH) = N[C@@H](Cc1ccc(CCC(=O)O)cc1)C(=O)O; Bip = N[C@@H](Cc1ccc(-c2ccccc2)cc1)C(=O)O; Phe(3-Me) = Cc1cccc(C[C@H](N)C(=O)O)c1; Val(3-OH) = CC(C)(O)[C@H](N)C(=O)O; Cha = N[C@@H](CC1CCCCC1)C(=O)O; Cit = NC(=O)NCCC[C@H](N)C(=O)O; Thr(3ξ) = CC(O)[C@H](N)C(=O)O; Tle = CC(C)(C)[C@H](N)C(=O)O; X20 = CN(CCCCCCCCCCC(=O)O)*; Carboxymethyl = O=C(O)C*; Orn = NCCC[C@H](N)C(=O)O; Aun = NCCCCCCCCCCC(=O)O; Dab = NCC[C@H](N)C(=O)O; Dap = NC[C@H](N)C(=O)O; AEEA = NCCOCCOCC(=O)O; Piv = CC(C)(C)C(=O)*
# Biological target: T1, PD-1/PD-L1 interaction (PE-labeled human PD-L1-Ig binding to Jurkat cell line over-expressing human PD-1) (Homo sapiens, UniProt Q15116)
# T1 construct: expressed in transfected cells; host or cells: Jurkat
# Experiment: Jurkat-PD-1 Cell Binding High-Content Screening Assay (CBA)
# Format: cell-based
# Details: Jurkat cell line over-expressing human PD-1; PE-labeled PD-L1-Ig 20 nM final; read-out: Jurkat hPD1-PDL1 IC50
# Summary of the method: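 Binding of fluorescent PD-L1-Ig (phycoerythrin on Ig tag, 20 nM final, 1 h) measured by high-content imaging of fixed, Hoechst-counterstained Jurkat-hPD-1 cells. Compound added 2 h at 37° C beforehand, in DMEM with 10% fetal calf serum.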
# T1 sequence (Q15116 25-288): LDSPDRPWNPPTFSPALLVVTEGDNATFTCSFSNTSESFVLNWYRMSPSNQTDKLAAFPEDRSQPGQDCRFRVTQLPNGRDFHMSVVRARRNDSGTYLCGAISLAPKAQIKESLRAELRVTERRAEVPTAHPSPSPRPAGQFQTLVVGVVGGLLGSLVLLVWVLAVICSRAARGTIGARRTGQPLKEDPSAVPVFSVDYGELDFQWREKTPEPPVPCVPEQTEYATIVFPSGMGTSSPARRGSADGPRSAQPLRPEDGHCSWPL
row,SMILES,IC50 [nM]
1,Cc1cccc(C[C@@H]2NC(=O)[C@H](CC(=O)O)NC(=O)[C@H](Cc3ccc(OCC(=O)O)cc3)NC(=O)[C@H](CCCNC(=N)N)NC(=O)CSC[C@@H](C(=O)N[C@@H](CCN)C(=O)NCCCCCCCCCCC(=O)O)NC(=O)[C@H](C(C)O)NC(=O)[C@H](CO)NC(=O)[C@H](CC3CCCCC3)NC(=O)[C@H](CCN)NC(=O)[C@@H](CC(C)C)NC(=O)[C@H](CCCN)NC(=O)[C@H](Cc3ccc(OCC(=O)O)cc3)NC(=O)[C@H](Cc3ccc(-c4ccccc4)cc3)NC(=O)[C@H](Cc3ccc(CCC(=O)O)cc3)NC2=O)c1 (stereo partly drawn) [Compound 3506] ({CH2CO}-RY(Carboxymethyl)D[Phe(3-Me)][Phe(4-CH2CH2COOH)][Bip]Y(Carboxymethyl)[Orn][dL][Dab][Cha]S[Thr(3ξ)]C[Dab][Aun]-OH; thioether N-14),15.1
2,CC(=O)NCCCC[C@@H]1NC(=O)[C@H](Cc2ccc(-c3ccccc3)cc2)NC(=O)[C@H](Cc2ccc(O)cc2)NC(=O)[C@H](Cc2cccc(C)c2)NC(=O)[C@H](CC(=O)O)NC(=O)[C@H](Cc2ccc(OCC(=O)O)cc2)NC(=O)[C@H](CCCNC(=N)N)NC(=O)CSC[C@@H](C(=O)N[C@@H](CCN)C(=O)NCCCCCCCCCCC(=O)O)NC(=O)[C@H](C(C)O)NC(=O)[C@H](CO)NC(=O)[C@H](CC2CCCCC2)NC(=O)[C@H](CCN)NC(=O)[C@@H](CC(C)C)NC(=O)[C@H](CCCN)NC1=O (stereo partly drawn) [Compound 3507] ({CH2CO}-RY(Carboxymethyl)D[Phe(3-Me)]Y[Bip]K(Ac)[Orn][dL][Dab][Cha]S[Thr(3ξ)]C[Dab][Aun]-OH; thioether N-14),39.7
3,CC(=O)NCCCC[C@@H]1NC(=O)[C@H](Cc2ccc(-c3ccccc3)cc2)NC(=O)[C@H](Cc2ccc(O)cc2)NC(=O)[C@H](Cc2cccc(C)c2)NC(=O)[C@H](CC(=O)O)NC(=O)[C@H](Cc2ccc(OCC(=O)O)cc2)NC(=O)[C@H](CCCNC(=N)N)NC(=O)CSC[C@@H](C(=O)N[C@@H](CCN)C(=O)NCCCCCCCCCCC(=O)O)NC(=O)[C@H](C(C)O)NC(=O)[C@H](C(C)C)NC(=O)[C@H](CC2CCCCC2)NC(=O)[C@H](CCN)NC(=O)[C@@H](CC(C)C)NC(=O)[C@H](CCCN)NC1=O (stereo partly drawn) [Compound 3508] ({CH2CO}-RY(Carboxymethyl)D[Phe(3-Me)]Y[Bip]K(Ac)[Orn][dL][Dab][Cha]V[Thr(3ξ)]C[Dab][Aun]-OH; thioether N-14),14.4
4,Cc1cccc(C[C@@H]2NC(=O)[C@H](CC(=O)O)NC(=O)[C@H](Cc3ccc(OCC(=O)O)cc3)NC(=O)[C@H](Cc3ccc(OCC(=O)O)cc3)NC(=O)CSC[C@@H](C(=O)NCCOCCOCC(=O)N(C)CCCCCCCCCCC(=O)O)NC(=O)[C@H](C(C)O)NC(=O)[C@H](C(C)C)NC(=O)[C@H](CC3CCCCC3)NC(=O)[C@H](CCN)NC(=O)[C@@H](CC(C)C)NC(=O)[C@H](CCCN)NC(=O)[C@H](CCCNC(N)=O)NC(=O)[C@H](Cc3ccc(-c4ccccc4)cc3)NC(=O)[C@H](C(C)C)NC2=O)c1 (stereo partly drawn) [Compound 3509] ({CH2CO}-Y(Carboxymethyl)Y(Carboxymethyl)D[Phe(3-Me)]V[Bip][Cit][Orn][dL][Dab][Cha]V[Thr(3ξ)]C[AEEA]-X20; thioether N-14),136
5,Cc1cccc(C[C@@H]2NC(=O)[C@H](CC(=O)O)NC(=O)[C@H](Cc3ccc(OCC(=O)O)cc3)NC(=O)[C@H](CCCNC(=N)N)NC(=O)CSC[C@@H](C(=O)N[C@@H](CNC(=O)C(C)(C)C)C(=O)NCCCCCCCCCCC(=O)O)NC(=O)[C@H](C(C)O)NC(=O)[C@H](C(C)C)NC(=O)[C@H](CC3CCCCC3)NC(=O)[C@H](CCN)NC(=O)[C@@H](CC(C)C)NC(=O)[C@H](CCCN)NC(=O)[C@H](CCCNC(N)=O)NC(=O)[C@H](Cc3ccc(-c4ccccc4)cc3)NC(=O)[C@H](C(C)C)NC2=O)c1 (stereo partly drawn) [Compound 3510] ({CH2CO}-RY(Carboxymethyl)D[Phe(3-Me)]V[Bip][Cit][Orn][dL][Dab][Cha]V[Thr(3ξ)]C[Dap](Piv)[Aun]-OH; thioether N-14),55.3
6,Cc1cccc(C[C@@H]2NC(=O)[C@H](CC(=O)O)NC(=O)[C@H](Cc3ccc(OCC(=O)O)cc3)NC(=O)[C@H](CCNC(=O)C(C)(C)C)NC(=O)CSC[C@@H](C(=O)N[C@@H](CCN)C(=O)NCCCCCCCCCCC(=O)O)NC(=O)[C@H](C(C)O)NC(=O)[C@H](C(C)C)NC(=O)[C@H](CC3CCCCC3)NC(=O)[C@H](CCN)NC(=O)[C@@H](CC(C)C)NC(=O)[C@H](CCCN)NC(=O)[C@H](CCCNC(N)=O)NC(=O)[C@H](Cc3ccc(-c4ccccc4)cc3)NC(=O)[C@H](C(C)C)NC2=O)c1 (stereo partly drawn) [Compound 3511] ({CH2CO}-[Dab](Piv)Y(Carboxymethyl)D[Phe(3-Me)]V[Bip][Cit][Orn][dL][Dab][Cha]V[Thr(3ξ)]C[Dab][Aun]-OH; thioether N-14),21.7
7,Cc1cccc(C[C@@H]2NC(=O)[C@H](CC(=O)O)NC(=O)[C@H](Cc3ccc(OCC(=O)O)cc3)NC(=O)[C@H](CCCNC(=N)N)NC(=O)CSC[C@@H](C(=O)N[C@@H](CCN)C(=O)NCCCCCCCCCCC(=O)O)NC(=O)[C@H](C(C)O)NC(=O)[C@H](C(C)(C)O)NC(=O)[C@H](CC3CCCCC3)NC(=O)[C@H](CCN)NC(=O)[C@@H](CC(C)C)NC(=O)[C@H](CCCN)NC(=O)[C@H](CCCNC(N)=O)NC(=O)[C@H](Cc3ccc(-c4ccccc4)cc3)NC(=O)[C@H](C(C)C)NC2=O)c1 (stereo partly drawn) [Compound 3512] ({CH2CO}-RY(Carboxymethyl)D[Phe(3-Me)]V[Bip][Cit][Orn][dL][Dab][Cha][Val(3-OH)][Thr(3ξ)]C[Dab][Aun]-OH; thioether N-14),18.2
8,Cc1cccc(C[C@@H]2NC(=O)[C@H](CC(=O)O)NC(=O)[C@H](Cc3ccc(OCC(=O)O)cc3)NC(=O)[C@H](CCCNC(=N)N)NC(=O)CSC[C@@H](C(=O)N[C@@H](CCN)C(=O)NCCCCCCCCCCC(=O)O)NC(=O)[C@H](C(C)O)NC(=O)[C@H](C(C)(C)O)NC(=O)[C@H](CC3CCCCC3)NC(=O)[C@H](CCN)NC(=O)[C@@H](CC(C)C)NC(=O)[C@H](CCCN)NC(=O)[C@H](Cc3ccc(OCC(=O)O)cc3)NC(=O)[C@H](Cc3ccc(-c4ccccc4)cc3)NC(=O)[C@H](Cc3ccc(OCC(=O)O)cc3)NC2=O)c1 (stereo partly drawn) [Compound 3513] ({CH2CO}-RY(Carboxymethyl)D[Phe(3-Me)]Y(Carboxymethyl)[Bip]Y(Carboxymethyl)[Orn][dL][Dab][Cha][Val(3-OH)][Thr(3ξ)]C[Dab][Aun]-OH; thioether N-14),10.8
9,Cc1cccc(C[C@@H]2NC(=O)[C@H](CC(=O)O)NC(=O)[C@H](Cc3ccc(OCC(=O)O)cc3)NC(=O)[C@H](CCCNC(=N)N)NC(=O)CSC[C@@H](C(=O)N[C@H](CC(N)=O)C(=O)NCCCCCCCCCCC(=O)O)NC(=O)[C@H](C(C)O)NC(=O)[C@H](CO)NC(=O)[C@H](CC3CCCCC3)NC(=O)[C@H](CCN)NC(=O)[C@@H](CC(C)C)NC(=O)[C@H](CCCN)NC(=O)[C@H](Cc3ccc(OCC(=O)O)cc3)NC(=O)[C@H](Cc3ccc(-c4ccccc4)cc3)NC(=O)[C@H](Cc3ccc(OCC(=O)O)cc3)NC2=O)c1 (stereo partly drawn) [Compound 3515] ({CH2CO}-RY(Carboxymethyl)D[Phe(3-Me)]Y(Carboxymethyl)[Bip]Y(Carboxymethyl)[Orn][dL][Dab][Cha]S[Thr(3ξ)]C[dN][Aun]-OH; thioether N-14),169
10,Cc1cccc(C[C@@H]2NC(=O)[C@H](CC(=O)O)NC(=O)[C@H](Cc3ccc(OCC(=O)O)cc3)NC(=O)[C@H](CCCNC(=N)N)NC(=O)CSC[C@@H](C(=O)N[C@@H](CCN)C(=O)NCCCCCCCCCCC(=O)O)NC(=O)[C@H](CCC(N)=O)NC(=O)[C@H](CO)NC(=O)[C@H](CC3CCCCC3)NC(=O)[C@H](CCN)NC(=O)[C@@H](CC(C)C)NC(=O)[C@H](CCCN)NC(=O)[C@H](Cc3ccc(OCC(=O)O)cc3)NC(=O)[C@H](Cc3ccc(-c4ccccc4)cc3)NC(=O)[C@H](Cc3ccc(OCC(=O)O)cc3)NC2=O)c1 [Compound 3516] ({CH2CO}-RY(Carboxymethyl)D[Phe(3-Me)]Y(Carboxymethyl)[Bip]Y(Carboxymethyl)[Orn][dL][Dab][Cha]SQC[Dab][Aun]-OH; thioether N-14),10.3
11,Cc1cccc(C[C@@H]2NC(=O)[C@H](CC(=O)O)NC(=O)[C@H](Cc3ccc(OCC(=O)O)cc3)NC(=O)[C@H](CCNC(=O)C(C)(C)C)NC(=O)CSC[C@@H](C(=O)N[C@@H](CCN)C(=O)NCCCCCCCCCCC(=O)O)NC(=O)[C@H](C(C)O)NC(=O)[C@H](C(C)(C)C)NC(=O)[C@H](CC3CCCCC3)NC(=O)[C@H](CCN)NC(=O)[C@@H](CC(C)C)NC(=O)[C@H](CCCN)NC(=O)[C@H](Cc3ccc(OCC(=O)O)cc3)NC(=O)[C@H](Cc3ccc(-c4ccccc4)cc3)NC(=O)[C@H](Cc3ccc(O)cc3)NC2=O)c1 (stereo partly drawn) [Compound 3517] ({CH2CO}-[Dab](Piv)Y(Carboxymethyl)D[Phe(3-Me)]Y[Bip]Y(Carboxymethyl)[Orn][dL][Dab][Cha][Tle][Thr(3ξ)]C[Dab][Aun]-OH; thioether N-14),27.9
12,Cc1cccc(C[C@@H]2NC(=O)[C@H](CC(=O)O)NC(=O)[C@H](Cc3ccc(OCC(=O)O)cc3)NC(=O)[C@H](CNC(=O)C(C)(C)C)NC(=O)CSC[C@@H](C(=O)N[C@@H](CC(N)=O)C(=O)NCCCCCCCCCCC(=O)O)NC(=O)[C@H](C(C)O)NC(=O)[C@H](C(C)(C)C)NC(=O)[C@H](CC3CCCCC3)NC(=O)[C@H](CCN)NC(=O)[C@@H](CC(C)C)NC(=O)[C@H](CCCN)NC(=O)[C@H](Cc3ccc(OCC(=O)O)cc3)NC(=O)[C@H](Cc3ccc(-c4ccccc4)cc3)NC(=O)[C@H](Cc3ccc(O)cc3)NC2=O)c1 (stereo partly drawn) [Compound 3518] ({CH2CO}-[Dap](Piv)Y(Carboxymethyl)D[Phe(3-Me)]Y[Bip]Y(Carboxymethyl)[Orn][dL][Dab][Cha][Tle][Thr(3ξ)]CN[Aun]-OH; thioether N-14),35.7
